# Reference: patent publication EP0752872B1, “NADH OXIDASE AS A TARGET IN DIAGNOSIS AND THERAPY” (Morré, D. James, priority 1994, dated 1995)
# Key:
# [1] = system: plasma membrane NADH oxidase; details: addition at 0.1 µM; normal rat liver plasma membrane vesicles; no addition 0.72 ± 0.06; cited from earlier work
# [2] = system: plasma membrane NADH oxidase; assay: Spectrophotometric NADH oxidase assay, rat liver plasma membranes (normal cells); assay type: biochemical
# Method: Purification of plasma membranes from rat liver. A 5000 x g pellet from the preparation of Golgi apparatus (Morré (1971) Meth. Enzymol. 22, 130-148) was the starting material. The fluffy layer which contains the Golgi apparatus fraction was mixed, withdrawn and excluded from the plasma membrane preparations. Cold 1 mM NaHCO3 (5 ml) was added to each tube and the friable yellow-brown upper part of the pellet was resuspended with a pen-brush, leaving the reddish tightly packed bottom part of the pellet undisturbed. The resuspended material was homogenized in aliquots of 5 ml each in a 30 ml stainless steel homogenizer (Duragrind) 20 times by hand. The homogenates were combined, diluted with cold 1 mM NaHCO3 (1:1 dilution), and centrifuged at 6000 x g in a HB rotor for 15 min. The supernatant was discarded and the pellet was used for the two-phase separation (Morré & Morré (1989) BioTechniques 7:946-958).
# The two-phase system contained 6.4% (w/w) Dextran T-500 (Pharmacia), 6.4% (w/w) polyethylene glycol) 3350 (Fisher), and 5 mM potassium phosphate buffer (pH 7.2) (Morré & Morré, 1989, supra). The homogenate (1 g) was added to the two-phase system and the weight of the system was brought to 8 g with distilled water. The tubes were inverted vigorously for 40 times in the cold (4°C). The phases were separated by centrifugation at 750 rpm (150 x g) in a Sorvall HB 4 rotor for 5 min. The upper phases were carefully withdrawn with a pasteur pipette, divided in half and transferred into 40 ml plastic centrifuge tubes and diluted with cold 1 mM NaHCO3. The purified plasma membranes were collected by centrifugation at 10,000 x g in a HB rotor for 30 min. Plasma membrane pellets were resuspended in 50 mM Tris-Mes buffer (pH 7.2) and stored at -70°C. Proteins were determined using the bicinchoninic acid (BCA) assay (Smith et al. (1985) Anal. Biochem. […]: 76-85) with bovine serum albumin as standard.
# (§1) Spectrophometric assay of NADH oxidase. NADH oxidase activity was determined as the disappearance of NADH measured at 340 nm in a reaction mixture containing 25 mM Tris-MES buffer (pH 7.2), 1 mM KCN to inhibit the low levels of contaminating mitochondrial oxidase activity, and 150 µM NADH at 37°C with constant stirring. Activity was measured using a Hitachi U3210 spectrophotometer with continuous recording over two intervals of 5 min each. A millimolar extinction coefficient of 6.22 was used to determine specific activity.
# [3] = system: HL-60 cells; assay: Growth of HL-60 cells in suspension; assay type: cell-based, human
# [4] = system: NADH oxidase activity of plasma membranes of HL-60 cells; assay: NADH oxidase assay, HL-60 plasma membranes; assay type: biochemical, human
# Method: as §1
# [5] = target: T1, plasma membrane NADH oxidase activity from RLT-N hepatoma (Rattus norvegicus, UniProt D3Z9Z5); assay: Spectrophotometric NADH oxidase assay, rat hepatoma plasma membranes; assay type: biochemical
# T1 sequence (D3Z9Z5 1-606): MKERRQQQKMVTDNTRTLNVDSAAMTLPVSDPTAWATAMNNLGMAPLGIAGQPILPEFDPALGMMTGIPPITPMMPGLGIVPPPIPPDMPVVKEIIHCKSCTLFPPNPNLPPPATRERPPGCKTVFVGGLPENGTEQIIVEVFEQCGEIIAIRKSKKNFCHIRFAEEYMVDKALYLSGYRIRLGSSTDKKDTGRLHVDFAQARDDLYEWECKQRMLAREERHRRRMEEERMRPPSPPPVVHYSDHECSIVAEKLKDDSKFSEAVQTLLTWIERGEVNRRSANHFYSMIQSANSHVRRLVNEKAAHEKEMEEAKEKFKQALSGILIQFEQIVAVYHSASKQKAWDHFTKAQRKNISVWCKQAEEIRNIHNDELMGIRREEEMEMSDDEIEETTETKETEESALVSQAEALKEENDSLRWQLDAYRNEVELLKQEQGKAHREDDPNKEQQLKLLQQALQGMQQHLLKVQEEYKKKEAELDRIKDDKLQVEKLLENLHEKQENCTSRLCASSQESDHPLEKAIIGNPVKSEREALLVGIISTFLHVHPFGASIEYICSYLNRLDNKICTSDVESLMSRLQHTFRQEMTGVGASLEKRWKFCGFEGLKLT
# Method: as §1
# [6] = system: uninfected Crandall feline leukemia cells; assay: Growth of uninfected cells; assay type: cell-based; details: Felis catus; normal cells; read-out: concentration inhibiting growth
# Method: (§2) The antisera were conjugated to adriamycin through an activated carboxyl of the antibody to the amine of adriamycin free base using 2-isobutoxyl-1-isobutoxycarbonyl-1,2-dihydroxyquinoline, where the antibody was bound to an Ag-BSA sepharose affinity column. The concentration of drug conjugated was determined spectroscopically and was tested initially at a concentration of 0.2 µM on the growth of FIV-infected and -uninfected Crandall feline leukemia cells.
# [7] = system: FIV-infected Crandall feline leukemia cells; assay: Growth of FIV-infected cells; assay type: cell-based; details: Felis catus, read-out: concentration inhibiting growth
# Method: as §2
# [8] = system: circulating NADH oxidase in the serum; assay: NADH oxidase activity of human serum; assay type: biochemical; details: adriamycin
# Method: as §1
# [9] = system: HL-60 cells; assay: Ascorbate radical assay of electron flow released from cells; assay type: cell-based, human; details: 0.2 mM ascorbate
# Method: Of particular interest is employing an electron acceptor in the assay for NADH oxidase, conveniently ascorbate radical, where one may follow the rate of disappearance of the ascorbate radical under the conditions of the assay. One can measure the reduction of ascorbate free radical at 265 nm employing a spectrophotometer as described by Winkler (1987) Biochim. et Biophys. Acta 925:258-264. One may use intact cells suspended in a convenient buffer medium containing ascorbate, incubating the cell suspension and then following the reduction of the ascorbate as described above. See, also, Alcain et al. (1991) Biochim. et Biophys. Acta 1073:380-385 and Navas et al. (1992) FEBS Letters 299:223-226.
# Under these conditions, electron flow is inhibited by adriamycin at concentrations where growth is inhibited in adriamycin susceptible HL-60 cells, but not inhibited with adriamycin-resistant cells, where growth also is not inhibited. These inhibitions with susceptible cells were observed without perceptible lag. Also the response was observed without preincubation with adriamycin.
# [10] = system: NADH oxidase activity of serum; assay: NADH oxidation by rat serum samples; assay type: biochemical; details: +0.25 µM adriamycin
# Method: as §1
# [11] = target: T2, NADH oxidase from HeLa cell plasma membranes (Homo sapiens, UniProt Q16206); assay: Spectrophotometric NADH oxidase assay, HeLa plasma membranes; assay type: biochemical; details: HeLa plasma membranes
# T2 sequence (Q16206 1-610): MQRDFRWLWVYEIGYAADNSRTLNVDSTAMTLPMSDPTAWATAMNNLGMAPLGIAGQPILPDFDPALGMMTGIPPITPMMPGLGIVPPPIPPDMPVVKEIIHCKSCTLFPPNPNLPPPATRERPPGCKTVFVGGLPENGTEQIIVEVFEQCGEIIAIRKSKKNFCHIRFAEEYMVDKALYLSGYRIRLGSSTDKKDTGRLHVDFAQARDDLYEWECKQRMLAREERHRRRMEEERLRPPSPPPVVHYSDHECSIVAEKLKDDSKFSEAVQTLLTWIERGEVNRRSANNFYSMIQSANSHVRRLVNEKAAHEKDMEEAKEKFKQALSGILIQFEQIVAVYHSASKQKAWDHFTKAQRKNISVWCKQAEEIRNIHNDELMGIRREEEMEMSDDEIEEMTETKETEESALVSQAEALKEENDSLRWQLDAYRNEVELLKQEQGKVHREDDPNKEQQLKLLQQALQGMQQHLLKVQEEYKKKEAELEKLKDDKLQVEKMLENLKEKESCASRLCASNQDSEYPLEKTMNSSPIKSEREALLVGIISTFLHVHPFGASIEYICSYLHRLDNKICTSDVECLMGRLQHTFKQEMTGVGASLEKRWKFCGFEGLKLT
# Method: Purification of plasma membranes from HeLa cells. HeLa cells were grown as suspension cultures in minimum essential medium (MEM) supplemented with horse serum, diferric transferrin and heparin. Cells were collected by centrifugation for 6 to 15 min at 1,000 to 3,000 rpm. The cell pellets were resuspended in 0.2 mM EDTA in 1 mM NaHCO3 in an approximate ratio of 1 ml per 10^8 cells and incubated on ice for 10 to 30 min to swell the cells. Homogenization was with a Polytron Homogenizer for 30 to 40 sec at 10,500 rpm using a PT-PA 3012/23 or ST-probe in 7 to 8 ml aliquots. To estimate breakage, the cells are monitored by light microscopy before and after homogenization. […]
# The homogenates were centrifuged for 10 min at 1,000 rpm (175 g) to remove unbroken cells and nuclei and the supernatant was centrifuged a second time at 1.4 x 10^6 g min (e.g. 1 h at 23,500 g) to prepare a plasma membrane enriched microsome fraction. […] The purity of the plasma membrane was determined to be > 90% by electron microscope morphometry. […]
# Spectrophometric assay of NADH oxidase. NADH oxidase activity was determined as the disappearance of NADH measured at 340 nm in a reaction mixture containing 25 mM Tris-MES buffer (pH 7.2), 1 mM KCN to inhibit the low levels of contaminating mitochondrial oxidase activity, and 150 µM NADH at 37°C with constant stirring. […]
molecule,measurement,setting,value
C=C1/C(=C\C=C2/CCC[C@]3(C)[C@@H]([C@H](C)CCCC(C)(C)O)CC[C@@H]23)C[C@@H](O)C[C@@H]1O [Calcitrol],NADH oxidase,[1],0.16 ± 0.04 nmoles/min/mg protein
COc1cccc2c1C(=O)c1c(O)c3c(c(O)c1C2=O)C[C@@](O)(C(=O)CO)C[C@@H]3O[C@H]1C[C@H](N)[C@H](O)[C@H](C)O1 [adriamycin],inhibition of growth factor-stimulated NADH oxidase activity,"[2]; 0.1 µM adriamycin, activity stimulated by epidermal growth factor (EGF)",inhibited completely
same,inhibition of NADH oxidase activity,"[2]; 0.1 µM adriamycin, liver plasma membranes",uninhibited
same,IC50,"[2]; plasma membranes from rat liver, normal cells, read-out: ED50 for inhibition of NADH oxidase activity",~7 µM
same,inhibition of growth (in words),"[3]; HL-60 cells, adriamycin susceptible, not differentiated",inhibited
same,inhibition of growth (in words),[3]; adriamycin-resistant cells,not inhibited
same,inhibition of NADH oxidase activity (in words),[4]; adriamycin-resistant HL-60 cells,not inhibited
same,inhibition of NADH oxidase activity (in words),"[4]; normal, adriamycin-susceptible HL-60 cells",inhibited
same,inhibition at 0.1 µM,"[5]; 0.1 µM adriamycin, hepatoma plasma membranes",40%
same,minimal effective concentration,[6],≥ 10 µM
same,minimal effective concentration,[7],≥ 10 µM
same,effect on change in absorbance (in words),[8]; sera from 12 normal individuals,consistently stimulated
same,effect on activity (in words),[8]; sera from the 18 cancer patients,inhibited with 17 of the samples and unchanged in one
same,inhibition of electron flow (in words),[9]; adriamycin susceptible HL-60 cells,inhibited
same,inhibition of electron flow (in words),[9]; adriamycin-resistant cells,not inhibited
same,Relative rates of NADH oxidation,"[10]; serum from normal rats, no adriamycin 1.7 ± 0.1",1.75 ± 0.05
same,Relative rates of NADH oxidation,"[10]; serum from rats bearing an RLT-28 tumor, no adriamycin 1.0 ± 0.1",0.35 ± 0.05
CCCCCCCCCC[C@H](O)[C@H]1CC[C@H]([C@H]2CC[C@H]([C@H](O)CCCCCCCCCC[C@@H](O)CC3=C[C@H](C)OC3=O)O2)O1 [bullatacin],inhibition of NADH oxidase activity (in words),[11],inhibition
simalikalactone D [similikalactone D],inhibition of NADH oxidase activity (in words),"[5]; final concentration of 0.4 µM prepared in DMSO, equivalent DMSO without effect",inhibited
